Reference: patent US6573246B1, “Modified ether glyceroglycolipids” (The Liposome Company, Inc., priority 1995, dated 2003)
Where two headings read alike, the source gives them in different places.

What was measured:
[1] = system: MCF-7 (breast adenocarcinoma) cells; assay: growth inhibition of MCF-7 cells in culture; format: cell-based, human; details: MCF7, mean ± standard deviation, read-out: Gl50 (concentration of lipid required to inhibit the growth of fifty percent of the cells in culture)
Experimental: (§1) Human epithelial cancer cell lines were grown from frozen stocks originally obtained from the ATCC, in media commonly used for growing these cells in culture. For example, A549 cells (non-small cell lung adenocarcinoma) were cultured in Ham's F-12 medium, T84 cells (colon carcinoma) were cultured in a 1:1 mixture of F-12 and DMEM while MCF-7 (breast adenocarcinoma) and A427 (large cell lung carcinoma) cells were cultured in DMEM. The media were supplemented with 10% fetal bovine serum, penicillin (50 U/ml), streptomycin (50 micogram/ml) and fungizone (0.5 microgram/ml). OVCAR-3 cells (ovarian adenocarcinoma) were cultured in RPMI 1640 medium supplemented with 20% FBS and 10 microgram/ml insulin.
(§2) Cells were subcultured into 24-well plates and the cell number was monitored daily. When the cells were in log phase, the media was replaced with one containing the required drug concentration, and the cells were incubated for 72 h. The increase in cell numbers relative to control wells (without any drug) was determined after the incubation. Stock solutions of the drugs ([…]) were prepared in ethanol and stored at −20 deg. C. Etherlipid solutions (30 micromolar) in the appropriate media were prepared fresh on the day of the experiment and serially diluted to give the required concentrations. The final concentration of ethanol in all wells was 0.1% (v/v).
(§3) Gl50 values are given as the mean ± standard deviation; the Gl50 value from each experiment “n” was generated from three individual wells on two separate plates (six total wells); n=1 for compounds 3-6; n=2 for most cell lines treated with compound 2 ^an=3; ^bn=2; ^cn=6; ^dn=8.

[2] = system: A549 cells (non-small cell lung adenocarcinoma); assay: growth inhibition of A549 cells in culture; format: cell-based, human; details: mean ± standard deviation, read-out: Gl50 (concentration of lipid required to inhibit the growth of fifty percent of the cells in culture)
Experimental: as §1, §2, §3

[3] = system: OVCAR-3 cells (ovarian adenocarcinoma); assay: growth inhibition of OVCAR-3 cells in culture; format: cell-based, human; details: for growth: increase in cell numbers relative to control wells (control = 100): OVCAR-3, 72 h
Experimental: as §1, §2

[4] = system: MCF-7/Adr (adriamycin-resistant) cells; assay: growth inhibition of MCF7/adr cells in culture; format: cell-based, human; details: mean ± standard deviation, read-out: Gl50 (concentration of lipid required to inhibit the growth of fifty percent of the cells in culture)
Experimental: (§4) The Gl50 values for edelfosine (1), 2′-deoxy-β-D-arabinopyranosyl (2), 2′-deoxy-α-D-arabinopyranosyl (3), 2-O-methyl-β-D-glucopyranosyl (4), 2′-O-methyl-β-D-mannopyranosyl (5) and α-D-mannopyransoyl (6) on A-549, MCF-7, Lewis Lung, MCF-7/Adr (adriamycin-resistant), P388, P-388/Adr, L1210 and L1210/vmdr cells were determined and are set forth below (see Table 4) as the concentration (micromolar) of lipid required to inhibit the growth of fifty percent of the cells in culture.
as §3

HT29 cells = assay: growth inhibition of HT29 cells in culture; format: cell-based; details: read-out: Gl50 (concentration of lipid required to inhibit the growth of fifty percent of the cells in culture)
Lewis Lung cells = assay: growth inhibition of Lewis Lung cells in culture; format: cell-based, murine; details: mean ± standard deviation, read-out: Gl50 (concentration of lipid required to inhibit the growth of fifty percent of the cells in culture)
Experimental: as §4, §3

P388 cells = assay: growth inhibition of P388 cells in culture; format: cell-based, murine; details: mean ± standard deviation, read-out: Gl50 (concentration of lipid required to inhibit the growth of fifty percent of the cells in culture)
Experimental: as §4, §3

P-388/Adr cells = assay: growth inhibition of P388/adr cells in culture; format: cell-based, murine; details: mean ± standard deviation, read-out: Gl50 (concentration of lipid required to inhibit the growth of fifty percent of the cells in culture)
Experimental: as §4, §3

L1210 cells = assay: growth inhibition of L1210 cells in culture; format: cell-based; details: mean ± standard deviation, read-out: Gl50 (concentration of lipid required to inhibit the growth of fifty percent of the cells in culture)
Experimental: as §4, §3

L1210/vmdr cells = assay: growth inhibition of L1210/vmdr cells in culture; format: cell-based; details: mean ± standard deviation, read-out: Gl50 (concentration of lipid required to inhibit the growth of fifty percent of the cells in culture)
Experimental: as §4, §3

CCCCCCCCCCCCCCCCCCOCC(COP(=O)([O-])OCC[N+](C)(C)C)OC (stereo not drawn) [compound 1, edelfosine, reference compound]
IC50 ([1]; Homo sapiens): 9.66 µM
IC50 ([2]; Homo sapiens): 5.05 µM
IC50 ([3]; Homo sapiens, OVCAR-3 ovarian cancer cell line, read-out: Gl50 (the source's name)): 24 µM
growth: increase in cell numbers relative to control wells (control = 100) ([3]; lipid concentration 5 μM): 105.8 ± 8.5
growth: increase in cell numbers relative to control wells (control = 100) ([3]; lipid concentration 10 μM): 77.5 ± 1.0
growth: increase in cell numbers relative to control wells (control = 100) ([3]; lipid concentration 15 μM): 70.7 ± 9.9
growth: increase in cell numbers relative to control wells (control = 100) ([3]; lipid concentration 20 μM): 68.7 ± 13.6
growth: increase in cell numbers relative to control wells (control = 100) ([3]; lipid concentration 30 μM): 20.4 ± 8.1
IC50 ([4]; Homo sapiens, NCI/ADR-RES): 30.4 µM
IC50 (HT29 cells; Homo sapiens, HT-29, mean ± standard deviation): 2.2 µM
IC50 (Lewis Lung cells; Mus musculus, Lewis lung carcinoma): 30.2 µM
IC50 (P388 cells; Mus musculus): 4.33 µM
IC50 (P-388/Adr cells; Mus musculus): 6.39 µM
IC50 (L1210 cells; Mus musculus): 3.32 µM
IC50 (L1210/vmdr cells; Mus musculus): 11 µM

CCCCCCCCCCCCCCCCOC[C@H](CO[C@H]1C[C@H](O)[C@H](O)CO1)OC [compound 2, 1-O-Hexadecyl-2-O-methyl-3-O-(2′-deoxy-β-D-arabinopyransoyl)-sn-glycerol]
IC50 [1]: 6.93 ± 0.12 µM
IC50 [2]: 9.9 ± 0.99 µM
IC50 [4]: 12.8 ± 0.85 µM
IC50 (HT29 cells; mean ± standard deviation): 7.59 ± 0.23 µM
IC50 (Lewis Lung cells): 11.1 ± 0.49 µM
IC50 (P388 cells): 12.7 ± 0.78 µM
IC50 (P-388/Adr cells): 10.2 ± 0.34 µM
IC50 (L1210 cells): 7.02 ± 0.49 µM
IC50 (L1210/vmdr cells): 7.09 ± 0.33 µM
